From US20210261642A1, “SOLUBILITY OF GLP-1 PEPTIDE” (Novo Nordisk A/S, priority 2017, published 2021)

Assay: Assay (I): Determination of Solubility (96-well plate, pH 3.0-11.0, organic solvent 0-70% w/w, UV absorption at 280 nm)
Type: physicochemical
Settings: Method 1
Protocol: Assay (I): Determination of Solubility
96-Well Plate Preparation
96-well plates containing target peptide in a solid form were prepared in one of two ways:
Method 1 (evaporation): Addition of 100 μl stock solution of said peptide at a concentration of 4-6 mg/ml to each well of a 96-well half area plate (150 μl well size). Subsequently the solvent was evaporated by applying a vacuum until the solvent was completely removed.
Method 2 (precipitation): Addition of a certain volume of a stock solution of said peptide containing to each well of a 96-well half area plate followed by the addition of a certain volume of concentrated phosphoric acid to obtain a pH of 4.6 followed by addition of a certain volume of ethanol resulting in a final ethanol concentration of 20% v/v. Subsequently the plate was stored at 4° C. for 1 h and then centrifuged at 4,000 rpm for 20 min. Finally the supernatant was removed. The concentration of the stock solution was chosen in a way that the final amount of peptide after supernatant removal was >0.4 mg per well.
In both cases the stock solution was prepared by adding de-ionized water to a certain amount of powder of said peptide followed by a stepwise addition of small amounts of a concentrated sodium hydroxide solution until said peptide was completely in solution.
To determine solubility of a target peptide at different pH and organic solvent concentrations, two different buffer systems were used in independent experiments to cover the whole range from pH 3.0 to pH 11.0. Buffer system 1 covers pH 3.0-7.5 and buffer system 2 covers pH 7.5-11.0. For each buffer system 96 different solvent compositions were premixed in the following way: • 1. A low pH buffer (adjusted to either pH 3.0 or pH 7.5) and a high pH buffer (adjusted to either pH 7.5 or pH 11.0) were mixed at 8 different ratios to obtain values between pH 3.0 and pH 7.5 or pH 7.5 and pH 11.0, respectively. The total volume after mixing was 300 μl. • 2. 12 different amounts of organic solvent were then added to these buffers to obtain organic solvent (e.g. ethanol) concentrations between 0 and 70% w/w. • 3. Water was then added to obtain a total weight of 1.0 g of solvent in each well.
After preparing the 96 different solvent systems, 100 μl of each system was transferred to the 96-well plate containing the solid form of the target peptide (prepared as described in the section “96-well plate preparation”). The plate was then stored at a given temperature (between 5° C. and 70° C.) for a given time on a rotating shaker set to 400 rpm. At regular time intervals the plate was centrifuged (4,000 rpm for 10 min) and a 10 μl sample was taken from each well. The samples were then analysed by UV absorption at 280 nm for peptide quantification. Peptide concentration results are given as UV absorption at 280 nm of the sample subtracted UV absorption at 280 nm of a well comprising 10 μl water.
The buffers used were as follows: • Buffer system 1 (for the pH range from pH 3.0-7.5)
• Buffer system 2 (for the pH ranae from pH 7.5-11.0)
Solubility of liraglutide was determined using Assay (I) described herein. Liraglutide was prepared using Method 1 (evaporation) or Method 2 (precipitation) as described in subsection “96-well plate preparation”.

- Peptide concentration after 5 min (MeCN 31.8% w/w, pH 10.0, 5° C.): 1.9 mg/mL
- Peptide concentration after 180 min (MeCN 31.8% w/w, pH 10.0, 5° C.): >4.0 mg/mL
- Peptide concentration after 24 h (MeCN 31.8% w/w, pH 10.0, 5° C.): 2.8 mg/mL
- Peptide concentration after 5 min (MeCN 31.8% w/w, pH 10.5, 5° C.): 1.3 mg/mL
- Peptide concentration after 180 min (MeCN 31.8% w/w, pH 10.5, 5° C.): 3.9 mg/mL
- Peptide concentration after 24 h (MeCN 31.8% w/w, pH 10.5, 5° C.): 3.6 mg/mL
- Peptide concentration after 5 min (MeCN 31.8% w/w, pH 11.0, 5° C.): 0.8 mg/mL
- Peptide concentration after 180 min (MeCN 31.8% w/w, pH 11.0, 5° C.): 3.0 mg/mL
- Peptide concentration after 24 h (MeCN 31.8% w/w, pH 11.0, 5° C.): >4.0 mg/mL
- Peptide concentration after 5 min (MeCN 38.2% w/w, pH 8.0, 5° C.): 0.8 mg/mL
- Peptide concentration after 180 min (MeCN 38.2% w/w, pH 8.0, 5° C.): 3.2 mg/mL
- Peptide concentration after 24 h (MeCN 38.2% w/w, pH 8.0, 5° C.): >4.0 mg/mL
- Peptide concentration after 5 min (MeCN 38.2% w/w, pH 8.5, 5° C.): 0.8 mg/mL
- Peptide concentration after 180 min (MeCN 38.2% w/w, pH 8.5, 5° C.): 2.9 mg/mL
- Peptide concentration after 24 h (MeCN 38.2% w/w, pH 8.5, 5° C.): >4.0 mg/mL
- Peptide concentration after 5 min (MeCN 38.2% w/w, pH 9.0, 5° C.): 0.4 mg/mL
- Peptide concentration after 180 min (MeCN 38.2% w/w, pH 9.0, 5° C.): 2.0 mg/mL
- Peptide concentration after 24 h (MeCN 38.2% w/w, pH 9.0, 5° C.): >4.0 mg/mL
- Peptide concentration after 5 min (MeCN 38.2% w/w, pH 9.5, 5° C.): 1.1 mg/mL
- Peptide concentration after 180 min (MeCN 38.2% w/w, pH 9.5, 5° C.): 3.9 mg/mL
- Peptide concentration after 24 h (MeCN 38.2% w/w, pH 9.5, 5° C.): 4.0 mg/mL
- Peptide concentration after 5 min (MeCN 38.2% w/w, pH 10.0, 5° C.): 1.5 mg/mL
- Peptide concentration after 180 min (MeCN 38.2% w/w, pH 10.0, 5° C.): >4.0 mg/mL
- Peptide concentration after 24 h (MeCN 38.2% w/w, pH 10.0, 5° C.): >4.0 mg/mL
- Peptide concentration after 5 min (MeCN 38.2% w/w, pH 10.5, 5° C.): 1.2 mg/mL
- Peptide concentration after 180 min (MeCN 38.2% w/w, pH 10.5, 5° C.): 3.2 mg/mL
- Peptide concentration after 24 h (MeCN 38.2% w/w, pH 10.5, 5° C.): 2.1 mg/mL
- Peptide concentration after 5 min (MeCN 38.2% w/w, pH 11.0, 5° C.): 0.6 mg/mL
- Peptide concentration after 180 min (MeCN 38.2% w/w, pH 11.0, 5° C.): 2.7 mg/mL
- Peptide concentration after 24 h (MeCN 38.2% w/w, pH 11.0, 5° C.): >4.0 mg/mL
- Peptide concentration after 5 min (MeCN 44.5% w/w, pH 8.0, 5° C.): 0.7 mg/mL
- Peptide concentration after 180 min (MeCN 44.5% w/w, pH 8.0, 5° C.): 2.8 mg/mL
- Peptide concentration after 24 h (MeCN 44.5% w/w, pH 8.0, 5° C.): >4.0 mg/mL
- Peptide concentration after 5 min (MeCN 44.5% w/w, pH 8.5, 5° C.): 1.1 mg/mL
- Peptide concentration after 180 min (MeCN 44.5% w/w, pH 8.5, 5° C.): 3.3 mg/mL
- Peptide concentration after 24 h (MeCN 44.5% w/w, pH 8.5, 5° C.): >4.0 mg/mL
- Peptide concentration after 5 min (MeCN 44.5% w/w, pH 9.0, 5° C.): 1.7 mg/mL
- Peptide concentration after 180 min (MeCN 44.5% w/w, pH 9.0, 5° C.): 2.7 mg/mL
- Peptide concentration after 24 h (MeCN 44.5% w/w, pH 9.0, 5° C.): >4.0 mg/mL
- Peptide concentration after 5 min (MeCN 44.5% w/w, pH 9.5, 5° C.): 1.1 mg/mL
- Peptide concentration after 180 min (MeCN 44.5% w/w, pH 9.5, 5° C.): 3.7 mg/mL
- Peptide concentration after 24 h (MeCN 44.5% w/w, pH 9.5, 5° C.): 1.3 mg/mL
- Peptide concentration after 5 min (MeCN 44.5% w/w, pH 10.0, 5° C.): 1.3 mg/mL
- Peptide concentration after 180 min (MeCN 44.5% w/w, pH 10.0, 5° C.): 3.7 mg/mL
- Peptide concentration after 24 h (MeCN 44.5% w/w, pH 10.0, 5° C.): >4.0 mg/mL
- Peptide concentration after 5 min (MeCN 44.5% w/w, pH 10.5, 5° C.): 0.9 mg/mL
- Peptide concentration after 180 min (MeCN 44.5% w/w, pH 10.5, 5° C.): 2.9 mg/mL
- Peptide concentration after 24 h (MeCN 44.5% w/w, pH 10.5, 5° C.): >4.0 mg/mL
- Peptide concentration after 5 min (MeCN 44.5% w/w, pH 11.0, 5° C.): 0.8 mg/mL
- Peptide concentration after 180 min (MeCN 44.5% w/w, pH 11.0, 5° C.): 2.9 mg/mL
- Peptide concentration after 24 h (MeCN 44.5% w/w, pH 11.0, 5° C.): >4.0 mg/mL
- Peptide concentration after 5 min (MeCN 50.9% w/w, pH 8.0, 5° C.): 0.6 mg/mL
SMILES: CCCCCCCCCCCCCCCC(=O)N[C@@H](CCC(=O)NCCCC[C@H](NC(=O)[C@H](C)NC(=O)[C@H](C)NC(=O)[C@H](CCC(N)=O)NC(=O)CNC(=O)[C@H](CCC(=O)O)NC(=O)[C@H](CC(C)C)NC(=O)[C@H](Cc1ccc(O)cc1)NC(=O)[C@H](CO)NC(=O)[C@H](CO)NC(=O)[C@@H](NC(=O)[C@H](CC(=O)O)NC(=O)[C@H](CO)NC(=O)[C@@H](NC(=O)[C@H](Cc1ccccc1)NC(=O)[C@@H](NC(=O)CNC(=O)[C@H](CCC(=O)O)NC(=O)[C@H](C)NC(=O)[C@@H](N)Cc1cnc[nH]1)[C@@H](C)O)[C@@H](C)O)C(C)C)C(=O)N[C@@H](CCC(=O)O)C(=O)N[C@@H](Cc1ccccc1)C(=O)N[C@H](C(=O)N[C@@H](C)C(=O)N[C@@H](Cc1c[nH]c2ccccc12)C(=O)N[C@@H](CC(C)C)C(=O)N[C@H](C(=O)N[C@@H](CCCNC(=N)N)C(=O)NCC(=O)N[C@@H](CCCNC(=N)N)C(=O)NCC(=O)O)C(C)C)[C@@H](C)CC)C(=O)O [liraglutide, Arg34,Lys26-(N-epsilon-(gamma-L-glutamyl(N-alfa-hexadecanoyl)))-GLP-1(7-37)]
